We go through eleven compounds from US20210330611A1, “THERAPY FOR NEUROLOGICAL DISEASES/DISORDERS” (priority 2020, published 2021).

In series [1] the test system is LPS-induced microglia activation. As to the kind of experiment: Image-based assay of LPS-induced microglia activation (HTS and dose response). The format is cell-based, rat. To be noted: primary microglia HTS, LPS stimulation, compounds at 10 μM; for inhibition at 10 µM: Rattus norvegicus, Microglia, read-out: LPS % inhibition.
Series [2] deals with fibrin-induced microglia activation. Briefly: Image-based assay of fibrin-induced microglia activation (HTS and dose response). The format is cell-based, rat. To be noted: primary microglia HTS, fibrin stimulation, compounds at 10 μM; for inhibition at 10 µM: Rattus norvegicus, Microglia, read-out: Fibrin % inhibition.
Series [3] has as its system primary rat microglia.
Series [4] has as its system fibrin- and LPS-induced microglia activation. As to the kind of experiment: cells. The format is cell-based, rat. As to conditions: classification by fibrin and LPS inhibition, HTS at 10 μM.
The test system of series [5] is primary rat microglia. Briefly: Cell toxicity (dead cells, size <150 μm2) in coated fibrin (cFib) assay.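 Further: share of dead cells sized under 150 µm2 at 10 µM in fibrin-stimulated microglia HTS.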 To be noted: primary microglia HTS, fibrin assay, dead cells (size <150 μm2), compounds at 10 μM.

Each structure is given as a SMILES string. Counter-ions that a name gives are not always drawn. Like-named read-outs stand apart in the source and are kept apart here.

Take `CCCCC(CC)COC(=O)CC(C(=O)OCC(CC)CCCC)S(=O)(=O)[O-].[Na+]` (stereo not shown) [Docusate Sodium]: in series [1], the LPS % inhibition was −4%. Besides, in series [2], the Fibrin % inhibition is −39%. Further, the “LPS % cell toxicity” value in series [3] amounted to 0%. For the same compound, in series [4], the “Quadrant (FIG. 5b)” value is given as “Q4”. In addition, the “Fibrin % cell toxicity” value in series [5] is given as 0%.
In general, inhibition refers to the relative decrease from the control value, in per cent. Consider `CN(CCOc1ccc(NS(C)(=O)=O)cc1)CCc1ccc(NS(C)(=O)=O)cc1` [Dofetilide], for which the inhibition at 10 µM is 5% in series [1] and -26% in series [2]. Besides, the “LPS % cell toxicity” value in series [3] (rat) came out at 0%. The “Quadrant (FIG. 5b)” value in series [4] is listed as “Q4”. The “Fibrin % cell toxicity” value in series [5] worked out at 1%.
In the case of `CO[C@H]1C[C@H](O[C@H]2[C@H](C)O[C@@H](O[C@@H]3/C(C)=C/C[C@@H]4C[C@@H](C[C@]5(C=C[C@H](C)[C@@H](C6CCCCC6)O5)O4)OC(=O)[C@@H]4C=C(C)[C@@H](O)[C@H]5OC/C(=C\C=C\[C@@H]3C)[C@]54O)C[C@@H]2OC)O[C@@H](C)[C@@H]1O` [Doramectin], the LPS % inhibition in series [1] came out at 7%. Moreover, the Fibrin % inhibition in series [2] is reported as −9%. The “LPS % cell toxicity” value in series [3] came out at 0%. In addition, the “Quadrant (FIG. 5b)” value in series [4] is “Q4”. Further, the “Fibrin % cell toxicity” value in series [5] came to 1%.
Regarding `CCN1CC(CCN2CCOCC2)C(c2ccccc2)(c2ccccc2)C1=O` (stereo not shown) [Doxapram Hydrochloride], the inhibition at 10 µM was 9% in series [1] and -18% in series [2]. Besides, the “LPS % cell toxicity” value in series [3] (rat) is reported as 0%. In addition, the “Quadrant (FIG. 5b)” value in series [4] was “Q4”. In series [5], the “Fibrin % cell toxicity” value was determined as 0%.
With `COc1cc2nc(N3CCN(C(=O)C4COc5ccccc5O4)CC3)nc(N)c2cc1OC` (stereo not shown) [Doxazosin], the inhibition at 10 µM is 6% in series [1] and -26% in series [2]. In series [3] (rat), the “LPS % cell toxicity” value stood at 0%. Besides, in series [4], the “Quadrant (FIG. 5b)” value is listed as “Q4”. Moreover, in series [5], the “Fibrin % cell toxicity” value is 0%.
As for `C[C@H]1c2cccc(O)c2C(=O)C2=C(O)[C@]3(O)C(=O)C(C(N)=O)=C(O)[C@@H](N(C)C)[C@@H]3[C@@H](O)[C@@H]21` [Doxycycline], the inhibition at 10 µM in series [1] is 18%; in series [2], -19%. Besides, in series [3] (rat), the “LPS % cell toxicity” value turned out to be 0%. For the same compound, in series [4], the “Quadrant (FIG. 5b)” value is given as “Q4”. Further, the “Fibrin % cell toxicity” value in series [5] was found to be 0%.
With `CN(C)CCOC(C)(c1ccccc1)c1ccccn1` (stereo not shown) [Doxylamine], the values for the inhibition at 10 µM in series [1] and in series [2] were 17% and -45%, respectively. Also, the “LPS % cell toxicity” value in series [3] (rat) is on record as 0%. The “Quadrant (FIG. 5b)” value in series [4] is reported as “Q4”. For the same compound, the “Fibrin % cell toxicity” value in series [5] amounted to 1%.
In the case of `CCN(CC)CCOC(=O)C(c1ccccc1)C1CCCCC1` (stereo not shown) [Drofenine Hydrochloride], the inhibition at 10 µM in series [1] was 9%; in series [2] it was -44%. Moreover, the “LPS % cell toxicity” value in series [3] (rat) is 0%. The “Quadrant (FIG. 5b)” value in series [4] is “Q4”. In addition, the “Fibrin % cell toxicity” value in series [5] came out at 1%.
Taken in the same sequence, the figures for `OCC(O)CN1CCN(c2ccccc2)CC1` (stereo not shown) [Dropropizine] were 11%, -26%, 0%, “Q4” and 1%.
Turning to `C[C@]12CCC(=O)C=C1[C@@H]1C[C@@H]1[C@H]1[C@@H]3[C@@H]4C[C@@H]4[C@@]4(CCC(=O)O4)[C@@]3(C)CC[C@@H]12` [Drospirenone], the inhibition at 10 µM in series [1] was determined as 6%; in series [2] it was 11%. Also, the “LPS % cell toxicity” value in series [3] (rat) is on record as 1%. The “Quadrant (FIG. 5b)” value in series [4] is recorded as “Q4”. Moreover, the “Fibrin % cell toxicity” value in series [5] was determined as 1%.
With `CC(=O)[C@H]1CC[C@H]2[C@@H]3C=CC4=CC(=O)CC[C@@]4(C)[C@@H]3CC[C@]12C` [Dydrogesterone], the inhibition at 10 µM in series [1] was 4%; in series [2], -11%. In series [3] (rat), the “LPS % cell toxicity” value was 0%. Further, the “Quadrant (FIG. 5b)” value in series [4] is given as “Q4”. Besides, the “Fibrin % cell toxicity” value in series [5] came to 0%.
